Results on one compound are retold here after patent US6525188B2, “Nuclear retinoic acid co-receptor” (Karo Bio Ab, priority 1994, dated 2003).

The structures appear in SMILES notation.

This experiment deals with RXR / OR-1 on a DR4-containing promoter. Briefly: PAP reporter gene under DR4-containing promoter, transfected embryonal carcinoma P19 EC cells. Conditions: 100 nM 9-cis retinoic acid, 36 h, PAP activity.

Method: Embryonal carcinoma P19 EC cells were cultured in Dulbecco's modified Eagle's medium supplemented with 10% foetal calf serum, nonessential amino acids, penicillin (100 units/ml) and streptomycin (100 mg/ml). […] Cells were plated in duplicate in 35 mm Petri dishes and transfected at 30% confluency, using lipofectin reagent (Bethesada Research Laboratories, USA) according to the recommendations of the supplier.
Transfections were repeated 6 times with different plasmid preparations and data from a representative experiment is presented here.
Since OR-1 and RXR formed a specific complex on the DR4 sequence in vitro, coexpression of OR-1 in embryonal carcinoma (EC) cells that express endogenous RXR was tested to determine whether it could affect the activity of a reporter gene under the control of a DR4-containing promoter.

Consider `CC1=C(/C=C/C(C)=C\C=C\C(C)=C\C(=O)O)C(C)(C)CCC1` [9-cis retinoic acid], for which the “activation of RXR on a DR4-containing promoter” value (EC cells with endogenous RXR, OR-1 expressed) is “activation”. Moreover, where the note is “embryonal carcinoma (EC) cells with endogenous RXR, without OR-1 expression”, the “induction of RXR on a reporter containing DR4” value was “no induction”.
